The target in assay [1] is Ankyrin repeat and protein kinase domain-containing protein 1 (Homo sapiens) (UniProt Q8NFD2). The conditions noted are these: Compound concentration 1000.0 nM.
Assay [2] concerns Phosphatidylinositol 4,5-bisphosphate 3-kinase catalytic subunit alpha isoform (Homo sapiens), P42336 [H1047L]. The conditions noted are these: Compound concentration 1000.0 nM.
Assay [3] relates to Phosphatidylinositol 4,5-bisphosphate 3-kinase catalytic subunit alpha isoform (Homo sapiens), P42336 [C420R]. As to conditions: Compound concentration 1000.0 nM.
Assay [4] addresses T1, Serine/threonine-protein kinase Chk1 (Homo sapiens) (UniProt O14757).
T1 sequence (whole entry): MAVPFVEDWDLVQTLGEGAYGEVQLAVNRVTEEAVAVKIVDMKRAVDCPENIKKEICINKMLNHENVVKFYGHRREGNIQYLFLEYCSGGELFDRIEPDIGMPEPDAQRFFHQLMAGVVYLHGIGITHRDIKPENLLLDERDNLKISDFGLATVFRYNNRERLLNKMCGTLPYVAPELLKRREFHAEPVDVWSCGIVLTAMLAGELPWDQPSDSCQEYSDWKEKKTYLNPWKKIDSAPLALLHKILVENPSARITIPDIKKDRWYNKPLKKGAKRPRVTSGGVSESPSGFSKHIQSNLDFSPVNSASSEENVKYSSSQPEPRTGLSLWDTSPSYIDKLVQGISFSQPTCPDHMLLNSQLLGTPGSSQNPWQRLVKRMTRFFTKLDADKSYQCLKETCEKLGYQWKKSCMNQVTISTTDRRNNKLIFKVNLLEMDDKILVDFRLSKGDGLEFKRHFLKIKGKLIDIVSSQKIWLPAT
As to conditions: Compound concentration 1000.0 nM.

Assay [5] addresses Serine/threonine-protein kinase PRP4 homolog (Homo sapiens) (UniProt Q13523). As to conditions: Compound concentration 1000.0 nM.
The subject of the next assay is SN12C. In words: Proliferation assay: SN12C (renal cell carcinoma). Type of assay: functional, cell-based. As to conditions: Homo sapiens.
Assay [6] addresses Interleukin-1 receptor-associated kinase 1 (Homo sapiens) (UniProt P51617). The conditions noted are these: Compound concentration 1000.0 nM.
In assay [7] the target is Non-receptor tyrosine-protein kinase TNK1 (Homo sapiens) (UniProt Q13470). As to conditions: Compound concentration 1000.0 nM.
In assay [8] the target is T2, Interleukin-1 receptor-associated kinase 4 (Homo sapiens) (UniProt Q9NWZ3).
T2 sequence (whole entry): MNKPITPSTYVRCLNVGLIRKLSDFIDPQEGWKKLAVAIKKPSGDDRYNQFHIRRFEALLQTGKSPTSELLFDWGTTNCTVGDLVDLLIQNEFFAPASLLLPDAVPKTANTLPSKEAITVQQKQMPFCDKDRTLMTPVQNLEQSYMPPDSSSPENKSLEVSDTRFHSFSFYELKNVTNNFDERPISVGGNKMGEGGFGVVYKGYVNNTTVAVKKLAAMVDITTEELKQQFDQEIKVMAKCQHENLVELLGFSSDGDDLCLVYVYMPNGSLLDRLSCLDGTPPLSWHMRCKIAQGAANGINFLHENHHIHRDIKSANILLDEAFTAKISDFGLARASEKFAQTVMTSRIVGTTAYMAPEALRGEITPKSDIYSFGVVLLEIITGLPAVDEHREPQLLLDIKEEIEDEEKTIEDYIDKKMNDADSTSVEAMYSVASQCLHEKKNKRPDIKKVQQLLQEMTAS
As to conditions: Compound concentration 1000.0 nM.

The target of assay [9] is Ribosomal protein S6 kinase alpha-6 (Homo sapiens) (UniProt Q9UK32). The conditions noted are these: Compound concentration 1000.0 nM.
In assay [10] the target is Cyclin-dependent kinase 4 (Homo sapiens) (UniProt P11802). As to conditions: Compound concentration 1000.0 nM.
Assay [11] deals with Solute carrier family 2, facilitated glucose transporter member 1 (Homo sapiens, UniProt P11166). In words: Cellular mechanistic assay: Inhibition of glucose uptake by Hela-MaTu cells.
The target in assay [12] is Dual specificity protein kinase CLK2 (Homo sapiens) (UniProt P49760). The conditions noted are these: Compound concentration 1000.0 nM.
For assay [13], the target named is Ribosomal protein S6 kinase alpha-4 (Homo sapiens) (UniProt O75676). As to conditions: Compound concentration 1000.0 nM.
The target in assay [14] is T3, Myosin light chain kinase (Homo sapiens) (UniProt Q32MK0).
T3 sequence (whole entry): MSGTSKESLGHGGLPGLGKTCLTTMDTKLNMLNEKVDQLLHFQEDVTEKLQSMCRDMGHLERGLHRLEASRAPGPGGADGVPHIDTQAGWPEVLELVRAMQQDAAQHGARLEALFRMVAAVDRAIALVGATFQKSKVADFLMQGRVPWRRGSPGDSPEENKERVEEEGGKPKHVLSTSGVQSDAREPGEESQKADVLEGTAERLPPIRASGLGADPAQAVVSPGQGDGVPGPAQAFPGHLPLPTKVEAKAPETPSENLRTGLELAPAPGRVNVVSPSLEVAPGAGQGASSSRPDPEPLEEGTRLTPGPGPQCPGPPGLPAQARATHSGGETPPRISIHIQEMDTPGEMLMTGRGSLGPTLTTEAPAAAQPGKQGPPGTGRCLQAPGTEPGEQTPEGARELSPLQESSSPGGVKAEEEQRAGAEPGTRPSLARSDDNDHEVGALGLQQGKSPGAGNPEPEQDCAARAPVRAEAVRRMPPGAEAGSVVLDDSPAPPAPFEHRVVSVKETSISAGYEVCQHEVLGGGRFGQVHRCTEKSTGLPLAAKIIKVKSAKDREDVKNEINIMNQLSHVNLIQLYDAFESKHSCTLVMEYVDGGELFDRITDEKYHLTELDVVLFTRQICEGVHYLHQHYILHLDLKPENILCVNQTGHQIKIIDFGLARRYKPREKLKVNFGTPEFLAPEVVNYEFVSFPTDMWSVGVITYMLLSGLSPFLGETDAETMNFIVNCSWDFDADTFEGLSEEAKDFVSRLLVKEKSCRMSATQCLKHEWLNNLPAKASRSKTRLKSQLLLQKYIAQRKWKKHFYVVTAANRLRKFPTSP
The conditions noted are these: Compound concentration 1000.0 nM.

Molecules are shown by their SMILES. Active and inactive are the calls of the source. The calls are words filed in the database; no cut-off is given here. Bounds are passed on as bounds.

Ankyrin repeat and protein kinase domain-containing protein 1 (Homo sapiens), sequence (Q8NFD2 whole entry, the tested form may be a part, canonical isoform): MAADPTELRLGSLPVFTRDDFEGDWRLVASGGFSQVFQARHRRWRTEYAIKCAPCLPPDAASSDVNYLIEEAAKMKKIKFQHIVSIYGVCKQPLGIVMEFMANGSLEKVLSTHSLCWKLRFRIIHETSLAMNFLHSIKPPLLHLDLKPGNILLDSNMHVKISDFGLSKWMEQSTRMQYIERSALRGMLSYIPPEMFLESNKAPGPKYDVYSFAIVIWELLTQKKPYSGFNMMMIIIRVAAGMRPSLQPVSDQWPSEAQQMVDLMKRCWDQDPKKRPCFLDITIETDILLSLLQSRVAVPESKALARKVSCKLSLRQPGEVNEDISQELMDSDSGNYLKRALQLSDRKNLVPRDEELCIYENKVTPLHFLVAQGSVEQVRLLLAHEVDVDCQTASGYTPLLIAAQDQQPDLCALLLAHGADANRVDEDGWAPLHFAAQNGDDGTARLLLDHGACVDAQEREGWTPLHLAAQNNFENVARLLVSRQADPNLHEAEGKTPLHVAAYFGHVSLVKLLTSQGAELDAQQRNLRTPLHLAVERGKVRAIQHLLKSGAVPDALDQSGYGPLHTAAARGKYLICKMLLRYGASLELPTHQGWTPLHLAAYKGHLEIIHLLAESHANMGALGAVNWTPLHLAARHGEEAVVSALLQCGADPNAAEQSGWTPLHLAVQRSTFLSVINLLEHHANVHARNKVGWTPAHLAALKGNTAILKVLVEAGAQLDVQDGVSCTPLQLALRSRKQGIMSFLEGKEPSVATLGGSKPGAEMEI
Interleukin-1 receptor-associated kinase 1 (Homo sapiens), sequence (P51617 whole entry, looked up): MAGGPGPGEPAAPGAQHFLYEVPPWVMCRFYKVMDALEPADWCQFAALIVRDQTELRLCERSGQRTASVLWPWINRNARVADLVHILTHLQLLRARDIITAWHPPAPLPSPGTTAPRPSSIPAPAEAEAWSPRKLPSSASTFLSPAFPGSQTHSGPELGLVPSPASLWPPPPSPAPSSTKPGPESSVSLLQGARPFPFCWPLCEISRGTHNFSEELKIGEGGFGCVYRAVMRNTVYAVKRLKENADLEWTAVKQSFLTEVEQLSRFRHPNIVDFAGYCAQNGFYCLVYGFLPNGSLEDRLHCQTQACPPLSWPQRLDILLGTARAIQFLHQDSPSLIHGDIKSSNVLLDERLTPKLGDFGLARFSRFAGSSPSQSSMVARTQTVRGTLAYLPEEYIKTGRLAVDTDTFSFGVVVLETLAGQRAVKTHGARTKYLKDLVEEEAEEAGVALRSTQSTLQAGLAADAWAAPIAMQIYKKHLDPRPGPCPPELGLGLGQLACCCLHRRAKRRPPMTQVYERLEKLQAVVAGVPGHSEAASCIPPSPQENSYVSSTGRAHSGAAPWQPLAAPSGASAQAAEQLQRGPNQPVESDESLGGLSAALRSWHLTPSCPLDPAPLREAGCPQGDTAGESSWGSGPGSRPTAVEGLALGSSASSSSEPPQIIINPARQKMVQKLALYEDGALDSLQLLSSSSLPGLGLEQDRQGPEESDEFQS
Non-receptor tyrosine-protein kinase TNK1 (Homo sapiens), sequence (Q13470 whole entry): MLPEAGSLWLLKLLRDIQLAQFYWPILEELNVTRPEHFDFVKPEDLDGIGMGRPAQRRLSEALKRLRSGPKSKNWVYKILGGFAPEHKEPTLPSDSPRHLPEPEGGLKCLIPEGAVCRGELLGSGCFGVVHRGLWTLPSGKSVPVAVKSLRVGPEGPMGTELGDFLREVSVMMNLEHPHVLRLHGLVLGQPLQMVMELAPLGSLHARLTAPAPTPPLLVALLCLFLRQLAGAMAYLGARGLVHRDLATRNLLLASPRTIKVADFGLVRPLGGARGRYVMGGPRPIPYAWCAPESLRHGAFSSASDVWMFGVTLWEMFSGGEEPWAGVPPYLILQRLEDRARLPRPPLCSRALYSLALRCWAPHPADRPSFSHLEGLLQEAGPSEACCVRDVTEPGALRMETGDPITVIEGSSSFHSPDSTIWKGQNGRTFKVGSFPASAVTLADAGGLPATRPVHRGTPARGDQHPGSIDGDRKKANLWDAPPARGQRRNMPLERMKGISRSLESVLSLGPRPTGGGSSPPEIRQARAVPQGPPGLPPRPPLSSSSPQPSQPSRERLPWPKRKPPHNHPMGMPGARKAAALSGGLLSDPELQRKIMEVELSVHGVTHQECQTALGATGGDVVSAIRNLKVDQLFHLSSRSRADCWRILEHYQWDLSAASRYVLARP
Ribosomal protein S6 kinase alpha-4 (Homo sapiens), sequence (O75676 whole entry, looked up): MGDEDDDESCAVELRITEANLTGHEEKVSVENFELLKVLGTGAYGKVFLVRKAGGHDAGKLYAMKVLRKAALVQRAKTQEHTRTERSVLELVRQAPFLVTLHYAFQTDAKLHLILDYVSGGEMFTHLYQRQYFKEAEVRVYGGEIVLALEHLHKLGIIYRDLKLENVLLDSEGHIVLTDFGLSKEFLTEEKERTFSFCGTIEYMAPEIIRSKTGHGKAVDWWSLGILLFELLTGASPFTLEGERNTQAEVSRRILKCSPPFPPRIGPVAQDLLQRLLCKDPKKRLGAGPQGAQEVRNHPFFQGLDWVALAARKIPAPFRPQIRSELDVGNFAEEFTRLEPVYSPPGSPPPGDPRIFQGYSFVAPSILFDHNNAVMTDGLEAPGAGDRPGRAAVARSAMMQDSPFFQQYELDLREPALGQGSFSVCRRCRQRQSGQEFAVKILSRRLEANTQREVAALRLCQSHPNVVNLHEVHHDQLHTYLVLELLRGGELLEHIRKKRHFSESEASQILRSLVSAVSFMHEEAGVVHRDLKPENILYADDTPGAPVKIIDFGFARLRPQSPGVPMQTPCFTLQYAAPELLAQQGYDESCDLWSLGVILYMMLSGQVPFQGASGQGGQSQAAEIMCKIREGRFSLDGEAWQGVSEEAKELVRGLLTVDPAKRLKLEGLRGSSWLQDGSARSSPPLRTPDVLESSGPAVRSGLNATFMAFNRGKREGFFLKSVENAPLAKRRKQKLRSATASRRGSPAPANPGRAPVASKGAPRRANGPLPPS
Dual specificity protein kinase CLK2 (Homo sapiens), sequence (P49760 whole entry, looked up): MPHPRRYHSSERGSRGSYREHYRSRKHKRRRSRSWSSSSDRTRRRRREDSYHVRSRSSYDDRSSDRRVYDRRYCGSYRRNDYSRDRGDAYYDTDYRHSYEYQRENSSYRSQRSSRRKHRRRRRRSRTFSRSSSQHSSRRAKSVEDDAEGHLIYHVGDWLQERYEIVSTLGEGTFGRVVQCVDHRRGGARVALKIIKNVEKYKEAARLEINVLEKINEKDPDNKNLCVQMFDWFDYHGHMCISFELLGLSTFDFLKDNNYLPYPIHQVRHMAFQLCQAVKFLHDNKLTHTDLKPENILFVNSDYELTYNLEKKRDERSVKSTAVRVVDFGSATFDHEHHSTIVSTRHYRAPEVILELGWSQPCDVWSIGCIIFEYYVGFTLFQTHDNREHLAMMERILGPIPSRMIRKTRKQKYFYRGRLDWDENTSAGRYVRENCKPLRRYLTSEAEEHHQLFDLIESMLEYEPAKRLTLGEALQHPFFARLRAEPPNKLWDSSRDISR
Phosphatidylinositol 4,5-bisphosphate 3-kinase catalytic subunit alpha isoform (Homo sapiens), P42336 [C420R], sequence (P42336 whole entry C420R, canonical isoform): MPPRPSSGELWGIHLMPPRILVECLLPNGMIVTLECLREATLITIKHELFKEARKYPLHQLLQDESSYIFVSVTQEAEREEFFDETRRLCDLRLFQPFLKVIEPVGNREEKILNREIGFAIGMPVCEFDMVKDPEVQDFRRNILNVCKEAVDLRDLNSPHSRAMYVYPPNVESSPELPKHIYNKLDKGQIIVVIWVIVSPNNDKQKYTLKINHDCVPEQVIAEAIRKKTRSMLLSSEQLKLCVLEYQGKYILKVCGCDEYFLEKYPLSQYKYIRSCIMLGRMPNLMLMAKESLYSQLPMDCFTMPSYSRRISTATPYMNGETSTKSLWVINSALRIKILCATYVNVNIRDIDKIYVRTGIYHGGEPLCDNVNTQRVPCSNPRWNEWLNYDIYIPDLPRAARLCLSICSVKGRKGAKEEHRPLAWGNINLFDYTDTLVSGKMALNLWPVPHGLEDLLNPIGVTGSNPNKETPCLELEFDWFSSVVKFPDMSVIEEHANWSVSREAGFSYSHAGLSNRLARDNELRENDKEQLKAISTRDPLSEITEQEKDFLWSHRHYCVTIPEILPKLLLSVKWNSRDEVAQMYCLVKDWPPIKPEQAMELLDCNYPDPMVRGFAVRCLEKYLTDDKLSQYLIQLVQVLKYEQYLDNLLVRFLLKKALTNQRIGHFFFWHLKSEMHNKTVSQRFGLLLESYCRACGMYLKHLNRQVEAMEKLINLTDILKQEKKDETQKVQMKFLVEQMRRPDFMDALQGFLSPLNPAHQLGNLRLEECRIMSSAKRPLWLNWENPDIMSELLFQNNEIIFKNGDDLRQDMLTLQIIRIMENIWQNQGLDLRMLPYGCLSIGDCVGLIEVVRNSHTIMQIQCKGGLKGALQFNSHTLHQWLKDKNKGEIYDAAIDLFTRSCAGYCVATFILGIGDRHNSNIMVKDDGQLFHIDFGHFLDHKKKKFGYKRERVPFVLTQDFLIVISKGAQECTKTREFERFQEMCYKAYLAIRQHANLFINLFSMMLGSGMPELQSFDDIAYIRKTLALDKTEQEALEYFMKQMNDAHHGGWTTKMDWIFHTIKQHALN
Cyclin-dependent kinase 4 (Homo sapiens), sequence (P11802 whole entry): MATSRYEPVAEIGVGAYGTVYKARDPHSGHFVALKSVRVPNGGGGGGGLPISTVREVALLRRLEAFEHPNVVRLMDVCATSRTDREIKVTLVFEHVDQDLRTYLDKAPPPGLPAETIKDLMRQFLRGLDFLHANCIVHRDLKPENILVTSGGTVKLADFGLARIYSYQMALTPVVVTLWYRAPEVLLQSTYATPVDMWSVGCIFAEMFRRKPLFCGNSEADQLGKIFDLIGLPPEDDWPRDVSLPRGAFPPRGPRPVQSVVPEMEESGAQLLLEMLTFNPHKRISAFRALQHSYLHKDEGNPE
Phosphatidylinositol 4,5-bisphosphate 3-kinase catalytic subunit alpha isoform (Homo sapiens), P42336 [H1047L], sequence (P42336 whole entry H1047L, canonical isoform): as the sequence (P42336 whole entry C420R, canonical isoform) above, with R420C, H1047L counted along it

As to `Cc1nc(C2CCN(C(=O)c3ccc(OC(F)(F)F)cc3N)CC2)c2ncc(N3CCN(C)CC3)cc2n1` [BAY-693], the residual activity in assay [1] was 81%; in assay [2], 87%; in assay [3], 86%; in assay [4] it was 100%; in [5], 96%; in assay [6] it was 100%. For the same compound, the residual activity in assay [7] is 100%; in assay [8], 90%; in assay [9] it was 100%; in assay [10] it was 100%; in assay [12] it was 100%; in assay [13] it was 100%. In addition, in assay [14], the residual activity is 100%. Besides, the IC50 in the assay on SN12C was 29.3 µM (not active); in assay [11], 6.4 µM (not active).

Take `CN1CCN(c2cnc3c(C4CCN(C(=O)c5ccc(OC(F)(F)F)cc5N)CC4)ncnc3c2)CC1` [BAY-885]: the residual activity in assay [1] was 98%; in assay [2], 100%; in assay [3], 94%; in assay [4], 100%; in [5], 100%; in assay [6], 100%. For the same compound, the residual activity was 100% in assay [7]; 90% in assay [8]; 100% in assay [9]; 100% in [10]; 100% in [12]; 100% in assay [13]. For the same compound, in assay [14], the residual activity is 82%. Further, the figures for the IC50 (in the assay with SN12C; in [11]) were > 30 µM (not active) and 0.035 µM (active), respectively.
